Where “and” joins values, the source holds several entries; their conditions need not be identical. Equal values may be shown once.
Target: MMP-13CD (catalytic domain of collagenase 3) (Homo sapiens, UniProt P45452)
Assay: Thiopeptolide hydrolysis assay, MMP-13;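 further: inhibition of enzymatic thiopeptolide substrate cleavage (100 µM) in pH 6.0 MES buffer with CaCl2 and DTNB, comparing hydrolysis with versus without inhibitor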

Compound | IC50 (MMP13 IC50 μM, Table IVb) [µM] | also measured
O=C(NCc1ccc2c(c1)OCO2)c1ccc2c(c1)c(=O)n(Cc1ccccc1)c1nccn21 [4-Benzyl-5-oxo-4,5-dihydro-imidazo[1,2-a]quinazoline-7-carboxylic acid (benzo[1,3]dioxol-5-ylmethyl)-amide] |  | IC50 (IC50 μM, Table V, MMP-13): 0.165 µM
Cn1c(=O)n(Cc2ccc(F)c(F)c2)c(=O)c2cc(C(=O)NCc3cccnc3)ccc21 | 0.067 | 
O=C(NCc1ccncc1)c1ccc2c(c1)c(=O)n(Cc1ccccc1)c1nncn21 [4-Benzyl-5-oxo-4,5-dihydro-[1,2,4]triazolo[4,3-a]quinazoline-7-carboxylic acid (pyridin-4-ylmethyl)-amide] |  | IC50 (IC50 μM, Table V, MMP-13): 0.04 µM
O=C(O)c1ccc(Cn2c(=O)c3cc(C#CCc4ccccc4)ccc3n3cnnc23)cc1 [Synthesis Example 74, 4-[5-Oxo-7-(3-phenyl-prop-1-ynyl)-5H-[1,2,4]triazolo[4,3-a]quinazolin-4-ylmethyl]-benzoic acid] |  | IC50 (IC50 μM, Table VII, MMP-13): 0.001 µM
COc1ccc(CNC(=O)c2ccc3c(c2)c(=O)n(CCN2CCOCC2)c(=O)n3C)cc1 | 9.3 | 
COc1ccc(CNC(=O)c2cc(C(=O)NCc3ccc4c(c3)OCO4)ccc2OC)cc1 [N-1,3-Benzodioxol-5-ylmethyl-4-methoxy-N′-(4-methoxy-benzyl)-isophthalamide] |  | IC50 (MMP13 IC50 (nM), Table II): 0.2 µM and 0.19 µM
CCC(C)n1c(=O)c(C)c2sc(C(=O)NCc3ccc(F)cc3)cn2c1=O (stereo not shown) |  | IC50 (MMP13 IC50 (μM), Table 1b): 0.4 µM
Cn1c(=O)n(Cc2ccccc2)c(=O)c2cc(C(=O)OC/C=C/c3ccncc3)ccc21 | 0.385 | 
COC(=O)Cc1ccc(Cn2c(=O)c3cc(C(=O)NCc4ccncc4)ccc3n3cnnc23)cc1 [Methyl (4-{7-[(pyridin-4-yl)-methylcarbamoyl]-5-oxo-5H-[1,2,4]triazolo[4,3-a]quinazolin-4-ylmethyl}-phenyl)-acetate] |  | IC50 (IC50 μM, Table V, MMP-13): 0.013 µM
CCC#CCn1c(=O)c(C)c2sc(C(=O)NCc3ccc(F)cc3)cn2c1=O |  | IC50 (MMP13 IC50 (μM), Table 1b): 0.092 µM
COC(=O)CCCCn1c(=O)c2cc(C(=O)OCc3ccccc3)sc2n(C)c1=O |  | IC50 (MMP 13 IC50 μM, Table III): 0.15 µM
N#Cc1ccc(Cn2c(=O)c3cc(C(=O)NCc4ccncc4)ccc3n3cnnc23)cc1 [N-(pyridin-4ylmethyl)-4-(4-cyanobenzyl)-5-oxo-4H-[1,2,4]triazolo[4,3-a]quinazol-7-ylcarboxamide] |  | IC50 (IC50 μM, Table V, MMP-13): 0.021 µM
COC(=O)c1ccc(Cn2c(=O)c3cc(C#CCc4ccc(OC)cc4)ccc3n3cnnc23)cc1 [Synthesis Example 73, Methyl 4-{7-[3-(4-methoxy-phenyl)-prop-1-ynyl]-5-oxo-5H-[1,2,4]triazolo[4,3-a]quinazolin-4-ylmethyl}-benzoate] |  | IC50 (IC50 μM, Table VII, MMP-13): 0.0017 µM
O=C(OCc1ccccc1)c1ccc2c(c1)c(=O)n(Cc1ccccc1)c1nncn21 [Synthesis Example 55, Benzyl 4-benzyl-5-oxo-4H-[1,2,4]triazolo[4,3-a]quinazol-7-ylcarboxylate] |  | IC50 (IC50 μM, Table V, MMP-13): 0.0034 µM
O=C(O)c1ccc(Cn2c(=O)c3cc(C(=O)NCc4ccc(F)cc4)ccc3n3cnnc23)cc1 [4-{7-[(4-Fluoro)-benzylcarbamoyl]-5-oxo-5H-[1,2,4]triazolo[4,3-a]quinazol-4-ylmethyl}benzoic acid] |  | IC50 (IC50 μM, Table V, MMP-13): 0.0011 µM
COC(=O)c1ccc(Cn2c(=O)c3cc(C(=O)NCc4ccncc4)ccc3n3cnnc23)cc1 [Methyl 4-{7-[(pyridin-4-ylmethyl)-carbamoyl]-5-oxo-5H-[1,2,4]triazolo[4,3-a]quinazol-4-ylmethyl}benzoate] |  | IC50 (IC50 μM, Table V, MMP-13): 0.012 µM
COc1ccc(CNC(=O)c2ccc(OC)c(C(=O)NCc3ccccc3)c2)cc1 |  | IC50 (MMP13 IC50 (nM), Table II): 0.81 µM
COc1ccc(CNC(=O)c2ccc3c(c2)c(=O)n(Cc2ccccc2)c2nncn32)cc1 [N-(4-Methoxybenzyl)-4-benzyl-5-oxo-4,5-dihydro[1,2,4]triazolo [4,3-a]quinazoline-7-carboxamide] |  | IC50 (IC50 μM, Table V, MMP-13): 0.0055 µM
COC(=O)Cn1c(=O)n(Cc2ccccc2)c(=O)c2cc(C(=O)NCc3ccc4c(c3)OCO4)ccc21 | 0.16 | 
COC(=O)c1ccc(Cn2c(=O)c3cc(C(=O)NCc4ccc5c(c4)OCO5)ccc3n3cnnc23)cc1 [Methyl 4-{7-[(1,3-benzodioxol-5-ylmethyl)-carbamoyl]-5-oxo-5H-[1,2,4]triazolo[4,3-a]quinazol-4-ylmethyl}benzoate] |  | IC50 (IC50 μM, Table V, MMP-13): 0.0011 µM
CCn1c(=O)n(Cc2cccc(F)c2)c(=O)c2cc(C(=O)NCc3cccnc3)ccc21 | 0.36 | 
Cc1c(=O)n(CCS(=O)(=O)c2ccc(F)cc2)c(=O)n2cc(C(=O)NCc3ccc(F)cc3)sc12 |  | IC50 (MMP13 IC50 (μM), Table 1b): 0.645 µM
Cn1c(=O)n(Cc2ccccc2)c(=O)c2cc(C(=O)CCc3ccccc3)ccc21 [3-Benzyl-1-methyl-6-(3-phenyl-propionyl)-1H-quinazoline-2,4-dione] | 2.9 | 
Cn1c(=O)c2cc(C(=O)NCc3ccc4c(c3)OCO4)ncc2n(C)c1=O | 0.18 | 
COC(=O)c1ccc(Cn2c(=O)c3cc(C#CCc4ccc(OC)cc4)ccc3n(C)c2=O)cc1 [Synthesis Example 66, Methyl 4-{6-[3-(4-methoxyphenyl)-prop-1-ynyl]-1-methyl-2,4-dioxo-1,4-dihydro-2H-quinazolin-3-ylmethyl}-benzoate] |  | IC50 (IC50 μM, Table VII, MMP-13): 0.01 µM
Cn1c(=O)n(Cc2ccc(F)c(F)c2)c(=O)c2cc(C(=O)NCc3ccncc3)ccc21 | 0.032 | 

Further lines, with some results ahead:

IC50 (MMP13 IC50 μM, Table IVb) [µM] | Compound | also measured
3.64 | CCN(CC)c1ccc(C(=O)Cn2c(=O)c3cc(C(=O)NCc4ccc(OC)cc4)ccc3n(C)c2=O)cc1 | 
1.35 | COCCn1c(=O)c2cc(C(=O)NCc3ccc(OC)cc3)ccc2n(C)c1=O | 
0.0015 | COc1ccc(CNC(=O)c2ccc3c(c2)c(=O)n(Cc2ccc(-c4noc(=O)[nH]4)cc2)c(=O)n3C)cc1 | 
0.084 | COC(=O)c1ccccc1-c1ccc(Cn2c(=O)c3cc(C(=O)NCc4ccc(OC)cc4)ccc3n(C)c2=O)cc1 | 
0.0665 | COc1ccc(CNC(=O)c2ccc3c(c2)c(=O)n(Cc2ccc(C4(C(=O)OC(C)(C)C)CC4)cc2)c(=O)n3C)cc1 | 
0.0093 | COc1ccc(CNC(=O)c2ccc3c(c2)c(=O)n(Cc2ccc(N)cc2)c(=O)n3C)cc1 | 
0.34 | CCn1c(=O)n(Cc2ccc(C(=O)OC)cc2)c(=O)c2cc(C(=O)NCc3ccc(OC(F)(F)F)cc3)ccc21 | 
0.008 | COc1ccc(CNC(=O)c2ccc3c(c2)c(=O)n(Cc2ccc(S(N)(=O)=O)cc2)c(=O)n3C)cc1 | 
0.021 | COc1cccc(CNC(=O)c2ccc3c(c2)c(=O)n(Cc2cccc(F)c2)c(=O)n3C)c1 | 
0.59 | COc1ccc(CNC(=O)c2ccc3c(c2)c(=O)n(CCCc2ccccc2)c(=O)n3C)cc1 | 
0.0009 | COc1ccc(CNC(=O)c2ccc3c(c2)c(=O)n(Cc2ccc(-c4nn[nH]n4)cc2)c(=O)n3C)cc1 | 
0.07 | COc1ccc(CNC(=O)c2ccc3c(c2)c(=O)n(Cc2ccc(CN)cc2)c(=O)n3C)cc1 | 
0.72 | CCOC(=O)COc1ccc(CNC(=O)c2ccc3c(c2)c(=O)n(Cc2ccccc2)c(=O)n3C)cc1 | 
0.057 | Cn1c(=O)n(Cc2ccc(O)cc2)c(=O)c2cc(C(=O)NCc3ccncc3)ccc21 | 
0.0016 | COc1ccc(CNC(=O)c2ccc3c(c2)c(=O)n(Cc2ccc(C(=O)O)c(O)c2)c(=O)n3C)cc1 | 
0.0033 | COc1ccc(CNC(=O)c2ccc3c(c2)c(=O)n(Cc2ccc(C4(C(=O)O)CC4)cc2)c(=O)n3C)cc1 | 

IC50 (MMP13 IC50 μM, Table IVb) [µM] | Compound | also measured
0.027 | COc1ccc(CNC(=O)c2ccc3c(c2)c(=O)n(Cc2cccc(C#N)c2)c(=O)n3C)cc1 | 
1.95 | COc1ccc(CNC(=O)c2ccc3c(c2)c(=O)n(CC(N)=O)c(=O)n3C)cc1 | 
0.095 | COc1ccc(CNC(=O)c2ccc3c(c2)c(=O)n(C/C=C/c2cccnc2)c(=O)n3C)cc1 | 
0.29 | COC(=O)c1ccc(Cn2c(=O)c3cc(C(=O)NCc4ccc(OC)cc4)ccc3n(C)c2=O)o1 | 
0.018 | COc1ccc(CNC(=O)c2ccc3c(c2)c(=O)n(Cc2ccc4nonc4c2)c(=O)n3C)cc1 | 
0.0057 | Cn1c(=O)n(Cc2ccc(C(=O)O)cc2)c(=O)c2cc(C(=O)NCc3ccncc3)ccc21 | 
0.0017 | COC(=O)c1ccc(Cn2c(=O)c3cc(C(=O)NCc4ccc(OC)cc4)ncc3n(C)c2=O)cc1 [Methyl 4-[6-(4-Methoxy-benzylcarbamoyl)-1-methyl-2,4-dioxo-1,4-dihydro-2H-pyrido[3,4-d]pyrimidin-3-ylmethyl]-benzoate] | 
0.031 | CCn1c(=O)n(Cc2ccc(C(=O)OC)cc2)c(=O)c2cc(C(=O)NCc3ccc(OC)cc3)ccc21 | 
0.013 | COc1ccc(CNC(=O)c2ccc3c(c2)c(=O)n(Cc2ccc(Br)cc2)c(=O)n3C)cc1 | 
0.016 | COc1ccc(CNC(=O)c2cnc3c(c2)c(=O)n(Cc2ccc(C#N)cc2)c(=O)n3C)cc1 [3-(4-Cyano-benzyl)-1-methyl-2,4-dioxo-1,2,3,4-tetrahydro-pyrido[2,3-d] pyrimidine-6-carboxylic acid 4-methoxy-benzylamide] | 
0.0084 | COc1ccc(CNC(=O)c2ccc3c(c2)c(=O)n(Cc2ccc(C(=O)O)s2)c(=O)n3C)cc1 | 
5.4 | COc1ccc(CNC(=O)c2ccc3c(c2)c(=O)n(CC2CCCN(C)C2)c(=O)n3C)cc1 (stereo not shown) | 
0.0125 | COc1ccc(CNC(=O)c2ccc3c(c2)c(=O)n(Cc2ccc(S(C)(=O)=O)cc2)c(=O)n3C)cc1 | 
0.039 | COc1ccc(CNC(=O)c2ccc3c(c2)c(=O)n(Cc2ccc(C(=O)OCOC(=O)C(NC(=O)C(N)C(C)C)C(C)C)cc2)c(=O)n3C)cc1 (stereo not shown) | 
0.004 | COc1ccc(CNC(=O)c2ccc3c(c2)c(=O)n(Cc2ccc(-c4nnn(C)n4)cc2)c(=O)n3C)cc1 | 
0.015 | COc1ccc(CNC(=O)c2ccc3c(c2)c(=O)n(Cc2ccc(NC(=O)OC(C)(C)C)nc2)c(=O)n3C)cc1 | 
